Results published in ChEMBL document CHEMBL3046147, “Synthesis and Herbicidal Activity of 1-Arylalkyl-3-pyrrolin-2-one Derivatives” (J Pestic Sci, 2000).
Active and inactive are the calls of the source. The rule behind the calls is not given here.

Tests used:
[1] = test system: Echinochloa oryzicola; experiment: Herbicidal activity against Echinochloa oryzicola grown in water-drained pot under greenhouse condition assessed as growth inhibition at 250 g /ha measured after 33 days; assay type: functional, organism-based
[2] = test system: Echinochloa oryzicola; experiment: Herbicidal activity against Echinochloa oryzicola grown in water-drained pot under greenhouse condition assessed as growth inhibition at 250 g /ha measured after 27 days; assay type: functional, organism-based
[3] = test system: Echinochloa oryzicola; experiment: Herbicidal activity against Echinochloa oryzicola grown in water-drained pot under greenhouse condition assessed as growth inhibition at 250 g /ha measured after 20 days; assay type: functional, organism-based
[4] = test system: Echinochloa oryzicola; experiment: Herbicidal activity against Echinochloa oryzicola grown in water-drained pot under greenhouse condition assessed as growth inhibition at 250 g /ha measured after 13 days; assay type: functional, organism-based
[5] = test system: Echinochloa oryzicola; experiment: Herbicidal activity against Echinochloa oryzicola grown in water-drained pot under greenhouse condition assessed as growth inhibition at 250 g /ha measured after 6 days; assay type: functional, organism-based
[6] = test system: Echinochloa oryzicola; experiment: Herbicidal activity against Echinochloa oryzicola grown in water-drained pot under greenhouse condition assessed as growth inhibition at 1000 g /ha measured after 42 days; assay type: functional, organism-based
[7] = test system: Echinochloa oryzicola; experiment: Herbicidal activity against Echinochloa oryzicola grown in water-drained pot under greenhouse condition assessed as growth inhibition at 1000 g /ha measured after 33 days; assay type: functional, organism-based
[8] = test system: Echinochloa oryzicola; experiment: Herbicidal activity against Echinochloa oryzicola grown in water-drained pot under greenhouse condition assessed as growth inhibition at 1000 g /ha measured after 27 days; assay type: functional, organism-based
[9] = test system: Echinochloa oryzicola; experiment: Herbicidal activity against Echinochloa oryzicola grown in water-drained pot under greenhouse condition assessed as growth inhibition at 1000 g /ha measured after 13 days; assay type: functional, organism-based
[10] = test system: Echinochloa oryzicola; experiment: Herbicidal activity against Echinochloa oryzicola grown in water-drained pot under greenhouse condition assessed as growth inhibition at 1000 g /ha measured after 20 days; assay type: functional, organism-based
[11] = test system: Echinochloa oryzicola; experiment: Herbicidal activity against Echinochloa oryzicola grown in water-drained pot under greenhouse condition assessed as growth inhibition at 1000 g /ha measured after 6 days; assay type: functional, organism-based
[12] = test system: Echinochloa oryzicola; experiment: Herbicidal activity against Echinochloa oryzicola grown in water-drained pot under greenhouse condition assessed as growth inhibition at 250 g /ha measured after 42 days; assay type: functional, organism-based
[13] = test system: Echinochloa oryzicola; experiment: Herbicidal activity against Echinochloa oryzicola grown in water-drained pot under greenhouse condition assessed as time duration of residual effect at 1000 g /ha; assay type: functional
[14] = test system: Echinochloa oryzicola; experiment: Herbicidal activity against Echinochloa oryzicola grown in water-drained pot under greenhouse condition assessed as time duration of residual effect at 250 g /ha; assay type: functional
[15] = test system: Echinochloa oryzicola; experiment: Herbicidal activity against Echinochloa oryzicola under greenhouse condition assessed as time duration of residual effect at 250 g /ha; assay type: functional
[16] = test system: Echinochloa oryzicola; experiment: Herbicidal activity against Echinochloa oryzicola under greenhouse condition assessed as time duration of residual effect at 1000 g /ha; assay type: functional
[17] = test system: Echinochloa oryzicola; experiment: Herbicidal activity against Echinochloa oryzicola under greenhouse condition assessed as growth inhibition at 1000 g /ha measured after 42 days; assay type: functional, organism-based
[18] = test system: Echinochloa oryzicola; experiment: Herbicidal activity against Echinochloa oryzicola under greenhouse condition assessed as growth inhibition at 1000 g /ha measured after 33 days; assay type: functional, organism-based
[19] = test system: Echinochloa oryzicola; experiment: Herbicidal activity against Echinochloa oryzicola under greenhouse condition assessed as growth inhibition at 1000 g /ha measured after 27 days; assay type: functional, organism-based
[20] = test system: Echinochloa oryzicola; experiment: Herbicidal activity against Echinochloa oryzicola under greenhouse condition assessed as growth inhibition at 1000 g /ha measured after 20 days; assay type: functional, organism-based
[21] = test system: Echinochloa oryzicola; experiment: Herbicidal activity against Echinochloa oryzicola under greenhouse condition assessed as growth inhibition at 1000 g /ha measured after 13 days; assay type: functional, organism-based
[22] = test system: Echinochloa oryzicola; experiment: Herbicidal activity against Echinochloa oryzicola under greenhouse condition assessed as growth inhibition at 250 g /ha measured after 42 days; assay type: functional, organism-based
[23] = test system: Echinochloa oryzicola; experiment: Herbicidal activity against Echinochloa oryzicola under greenhouse condition assessed as growth inhibition at 250 g /ha measured after 27 days; assay type: functional, organism-based
[24] = test system: Echinochloa oryzicola; experiment: Herbicidal activity against Echinochloa oryzicola under greenhouse condition assessed as growth inhibition at 250 g /ha measured after 20 days; assay type: functional, organism-based
[25] = test system: Echinochloa oryzicola; experiment: Herbicidal activity against Echinochloa oryzicola under greenhouse condition assessed as growth inhibition at 250 g /ha measured after 13 days; assay type: functional, organism-based
[26] = test system: Echinochloa oryzicola; experiment: Herbicidal activity against Echinochloa oryzicola under greenhouse condition assessed as growth inhibition at 250 g /ha measured after 6 days; assay type: functional, organism-based
[27] = test system: Echinochloa oryzicola; experiment: Herbicidal activity against Echinochloa oryzicola under greenhouse condition assessed as growth inhibition at 1000 g /ha measured after 6 days; assay type: functional, organism-based
[28] = test system: Echinochloa oryzicola; experiment: Herbicidal activity against Echinochloa oryzicola under greenhouse condition assessed as growth inhibition at 250 g /ha measured after 33 days; assay type: functional, organism-based

Question: `CN(C(=O)COc1nc2ccccc2s1)c1ccccc1` [MEFENACET] was tested. Which “growth inhibition (GI)” value [1] did it give?
Answer: inactive

Question: And the “growth inhibition (GI)” value [2]?
Answer: inactive

Question: What about the “growth inhibition (GI)” value [3] of the same molecule?
Answer: inactive

Question: What about the “growth inhibition (GI)” value [4] of the same molecule?
Answer: Active

Question: And the “growth inhibition (GI)” value [5]?
Answer: Active

Question: And the “growth inhibition (GI)” value [6]?
Answer: Active

Question: What about the “growth inhibition (GI)” value [7] of the same molecule?
Answer: Active

Question: And the “growth inhibition (GI)” value [8]?
Answer: Active

Question: What about the “growth inhibition (GI)” value [9] of the same molecule?
Answer: Active

Question: What about the “growth inhibition (GI)” value [10] of the same molecule?
Answer: Active

Question: And the “growth inhibition (GI)” value [11]?
Answer: Active

Question: And the “growth inhibition (GI)” value [12]?
Answer: inactive

Question: What about the Time [13] of the same molecule?
Answer: 33 days

Question: And the Time [14]?
Answer: 13 days

Question: And the Time [15]?
Answer: 13 days

Question: And the Time [16]?
Answer: 33 days

Question: And the “growth inhibition (GI)” value [17]?
Answer: Active

Question: And the “growth inhibition (GI)” value [18]?
Answer: Active

Question: What about the “growth inhibition (GI)” value [19] of the same molecule?
Answer: Active

Question: And the “growth inhibition (GI)” value [20]?
Answer: Active

Question: And the “growth inhibition (GI)” value [21]?
Answer: Active

Question: And the “growth inhibition (GI)” value [22]?
Answer: inactive

Question: What about the “growth inhibition (GI)” value [23] of the same molecule?
Answer: inactive

Question: What about the “growth inhibition (GI)” value [24] of the same molecule?
Answer: Active

Question: What about the “growth inhibition (GI)” value [25] of the same molecule?
Answer: Active

Question: What about the “growth inhibition (GI)” value [26] of the same molecule?
Answer: Active

Question: What about the “growth inhibition (GI)” value [27] of the same molecule?
Answer: Active

Question: And the “growth inhibition (GI)” value [28]?
Answer: inactive
